Assay results from ChEMBL document CHEMBL3994622, “Design and synthesis of new RAF kinase-inhibiting antiproliferative quinoline derivatives. Part 2: Diarylurea derivatives” (Eur J Med Chem, 2017).

What was measured:
[1] = system: HL-60(TB); test: Growth inhibition of human HL-60(TB) cells incubated for 48 hrs by sulforhodamine B assay; format: functional; details: HL-60, 48 h; for CC50: read-out: LC50 (the source's name)
[2] = system: EKVX; test: Growth inhibition of human EKVX cells incubated for 48 hrs by sulforhodamine B assay; format: functional
[3] = system: COLO 205; test: Growth inhibition of human COLO205 cells incubated for 48 hrs by sulforhodamine B assay; format: functional; details: COLO 205, 48 h; for CC50: read-out: LC50 (the source's name)
[4] = system: HCC 2998; test: Growth inhibition of human HCC2998 cells incubated for 48 hrs by sulforhodamine B assay; format: functional; details: HCC 2998, 48 h; for CC50: read-out: LC50 (the source's name)
[5] = system: HT-29; test: Growth inhibition of human HT-29 cells incubated for 48 hrs by sulforhodamine B assay; format: functional; details: HT-29, 48 h; for CC50: read-out: LC50 (the source's name)
[6] = system: KM12; test: Growth inhibition of human KM12 cells incubated for 48 hrs by sulforhodamine B assay; format: functional; details: KM12, 48 h; for CC50: read-out: LC50 (the source's name)
[7] = system: SW-620; test: Growth inhibition of human SW620 cells incubated for 48 hrs by sulforhodamine B assay; format: functional; details: SW-620, 48 h
[8] = system: SF-295; test: Growth inhibition of human SF295 cells incubated for 48 hrs by sulforhodamine B assay; format: functional; details: SF-295, 48 h; for CC50: read-out: LC50 (the source's name)
[9] = system: SF-539; test: Growth inhibition of human SF539 cells incubated for 48 hrs by sulforhodamine B assay; format: functional; details: SF-539, 48 h; for CC50: read-out: LC50 (the source's name)
[10] = system: SNB-19; test: Growth inhibition of human SNB19 cells incubated for 48 hrs by sulforhodamine B assay; format: functional; details: SNB-19, 48 h; for CC50: read-out: LC50 (the source's name)
[11] = system: LOX IMVI; test: Growth inhibition of human LOXIMVI cells incubated for 48 hrs by sulforhodamine B assay; format: functional; details: for CC50: read-out: LC50 (the source's name)
[12] = system: M14; test: Growth inhibition of human M14 cells incubated for 48 hrs by sulforhodamine B assay; format: functional; details: M14, 48 h; for CC50: read-out: LC50 (the source's name)
[13] = system: UACC-257; test: Growth inhibition of human UACC257 cells incubated for 48 hrs by sulforhodamine B assay; format: functional; details: UACC-257, 48 h; for CC50: read-out: LC50 (the source's name)
[14] = system: OVCAR-4; test: Growth inhibition of human OVCAR4 cells incubated for 48 hrs by sulforhodamine B assay; format: functional; details: OVCAR-4, 48 h; for CC50: read-out: LC50 (the source's name)
[15] = system: 786-0; test: Growth inhibition of human 786-0 cells incubated for 48 hrs by sulforhodamine B assay; format: functional; details: 786-0, 48 h; for CC50: read-out: LC50 (the source's name)
[16] = system: CAKI-1; test: Growth inhibition of human Caki1 cells incubated for 48 hrs by sulforhodamine B assay; format: functional; details: CAKI-1, 48 h; for CC50: read-out: LC50 (the source's name)
[17] = system: TK-10; test: Growth inhibition of human TK10 cells incubated for 48 hrs by sulforhodamine B assay; format: functional; details: TK-10, 48 h; for CC50: read-out: LC50 (the source's name)
[18] = system: UO-31; test: Growth inhibition of human UO31 cells incubated for 48 hrs by sulforhodamine B assay; format: functional; details: UO-31, 48 h; for CC50: read-out: LC50 (the source's name)
[19] = system: MDA-MB-231; test: Growth inhibition of human MDA-MB-231 cells incubated for 48 hrs by sulforhodamine B assay; format: functional; details: MDA-MB-231, 48 h; for CC50: read-out: LC50 (the source's name)
[20] = system: Hs-578T; test: Growth inhibition of human Hs 578T cells incubated for 48 hrs by sulforhodamine B assay; format: functional; details: for CC50: read-out: LC50 (the source's name)
[21] = biological target: RAF proto-oncogene serine/threonine-protein kinase (Homo sapiens, UniProt P04049); test: Inhibition of human c-RAF using MEK1 as substrate in presence of [33P]ATP by Hotspot assay
[22] = system: CAKI-1; test: Growth inhibition of human Caki1 cells assessed as cell growth at 0.003 uM incubated for 48 hrs by sulforhodamine B assay relative to control; format: functional; details: CAKI-1, 48 h, read-out: Activity
[23] = system: BT-549; test: Growth inhibition of human BT549 cells assessed as cell growth at 0.003 uM incubated for 48 hrs by sulforhodamine B assay relative to control; format: functional; details: BT-549, 48 h, read-out: Activity
[24] = system: HL-60(TB); test: Growth inhibition of human HL-60(TB) cells assessed as cell growth at 0.03 uM incubated for 48 hrs by sulforhodamine B assay relative to control; format: functional; details: HL-60, 48 h, read-out: Activity

Sequence of RAF proto-oncogene serine/threonine-protein kinase (P04049 whole entry): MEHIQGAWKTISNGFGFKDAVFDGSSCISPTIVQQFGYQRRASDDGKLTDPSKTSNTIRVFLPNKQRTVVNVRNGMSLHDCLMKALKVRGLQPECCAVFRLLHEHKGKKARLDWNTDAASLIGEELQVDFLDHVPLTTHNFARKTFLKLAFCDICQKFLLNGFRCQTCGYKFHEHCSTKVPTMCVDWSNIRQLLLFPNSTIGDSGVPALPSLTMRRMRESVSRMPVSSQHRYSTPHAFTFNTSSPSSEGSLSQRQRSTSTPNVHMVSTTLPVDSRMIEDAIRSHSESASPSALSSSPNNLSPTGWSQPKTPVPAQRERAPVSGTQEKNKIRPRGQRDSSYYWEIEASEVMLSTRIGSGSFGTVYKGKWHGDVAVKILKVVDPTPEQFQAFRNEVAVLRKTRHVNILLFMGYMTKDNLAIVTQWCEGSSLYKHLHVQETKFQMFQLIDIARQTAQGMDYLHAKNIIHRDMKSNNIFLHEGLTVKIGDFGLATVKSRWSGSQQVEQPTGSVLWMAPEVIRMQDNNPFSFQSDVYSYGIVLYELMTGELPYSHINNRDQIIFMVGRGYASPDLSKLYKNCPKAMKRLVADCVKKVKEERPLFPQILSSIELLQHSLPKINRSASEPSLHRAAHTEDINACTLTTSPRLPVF

Structure (SMILES): COc1cc2cc(Oc3ccc(NC(=O)Nc4cccc(C(F)(F)F)c4)cc3)c(C)nc2cc1OC
- GI50 [1]: 1.56 µM
- TGI [1]: 3.91 µM
- CC50 [1]: > 50 µM
- GI50 [2]: 1.48 µM
- LC50 (concentration killing 50% of cells) [2]: > 50 µM
- TGI [2]: 6.46 µM
- GI50 [3]: 1.12 µM
- TGI [3]: 2.4 µM
- CC50 [3]: 5.7 µM
- GI50 [4]: 2.59 µM
- TGI [4]: > 50 µM
- CC50 [4]: > 50 µM
- GI50 [5]: 2.05 µM
- TGI [5]: 6.26 µM
- CC50 [5]: 17.8 µM
- GI50 [6]: 1.42 µM
- TGI [6]: 5.92 µM
- CC50 [6]: 36.1 µM
- GI50 [7]: 2.28 µM
- LC50 [7]: > 50 µM
- TGI [7]: 11.1 µM
- GI50 [8]: 1.13 µM
- TGI [8]: 3.59 µM
- CC50 [8]: 27.2 µM
- GI50 [9]: 2.48 µM
- TGI [9]: 8.74 µM
- CC50 [9]: 25.4 µM
- GI50 [10]: 2.19 µM
- TGI [10]: 15 µM
- CC50 [10]: > 50 µM
- GI50 [11]: 1.84 µM
- TGI [11]: 6.61 µM
- CC50 [11]: 18.3 µM
- GI50 [12]: 1.67 µM
- TGI [12]: 7.67 µM
- CC50 [12]: 35.6 µM
- GI50 [13]: 1.09 µM
- TGI [13]: 3.66 µM
- CC50 [13]: 19.9 µM
- GI50 [14]: 2.3 µM
- TGI [14]: 9.7 µM
- CC50 [14]: 36 µM
- GI50 [15]: 1.74 µM
- TGI [15]: 9.24 µM
- CC50 [15]: > 50 µM
- GI50 [16]: 1.32 µM
- TGI [16]: 4.29 µM
- CC50 [16]: 48.6 µM
- GI50 [17]: 2.26 µM
- TGI [17]: 9.93 µM
- CC50 [17]: > 50 µM
- GI50 [18]: 1.98 µM
- TGI [18]: 10.8 µM
- CC50 [18]: > 50 µM
- GI50 [19]: 1.13 µM
- TGI [19]: 4.15 µM
- CC50 [19]: 18.6 µM
- GI50 [20]: 1.44 µM
- TGI [20]: 4.22 µM
- CC50 [20]: > 50 µM
- IC50 [21]: 0.15 µM

Structure (SMILES): COc1cc2cc(Oc3ccc(NC(=O)Nc4ccc(Cl)c(C(F)(F)F)c4)cc3)c(C)nc2cc1OC
- GI50 [1]: 1.13 µM
- TGI [1]: 3.12 µM
- CC50 [1]: > 32.5 µM
- GI50 [2]: 1.01 µM
- LC50 (concentration killing 50% of cells) [2]: 17.6 µM
- TGI [2]: 3.75 µM
- GI50 [3]: 0.66 µM
- TGI [3]: 1.31 µM
- CC50 [3]: 2.59 µM
- GI50 [4]: 1.77 µM
- TGI [4]: 5.48 µM
- CC50 [4]: 13.6 µM
- GI50 [5]: 1.2 µM
- TGI [5]: 3.98 µM
- CC50 [5]: 14.2 µM
- GI50 [6]: 1.07 µM
- TGI [6]: 3.85 µM
- CC50 [6]: 13.8 µM
- GI50 [7]: 1.25 µM
- LC50 [7]: 14 µM
- TGI [7]: 4.57 µM
- GI50 [8]: 0.899 to 0.9 µM
- TGI [8]: 2.91 µM
- CC50 [8]: 22.2 µM
- GI50 [9]: 1.96 µM
- TGI [9]: 8.39 µM
- CC50 [9]: > 32.5 µM
- GI50 [10]: 1.41 µM
- TGI [10]: 5.31 µM
- CC50 [10]: 15 µM
- GI50 [11]: 1.22 µM
- TGI [11]: 4.16 µM
- CC50 [11]: 11.6 µM
- GI50 [12]: 1.25 µM
- TGI [12]: 5.25 µM
- CC50 [12]: 19.2 µM
- GI50 [13]: 0.71 µM
- TGI [13]: 2.36 µM
- CC50 [13]: 19.6 µM
- GI50 [14]: 1.37 µM
- TGI [14]: 6.1 µM
- CC50 [14]: 23.5 µM
- GI50 [15]: 1.17 µM
- TGI [15]: 4.97 µM
- CC50 [15]: 18.8 µM
- GI50 [16]: 0.782 µM
- TGI [16]: 2.54 µM
- CC50 [16]: 25.2 µM
- GI50 [17]: 1.32 µM
- TGI [17]: 6.19 µM
- CC50 [17]: > 32.5 µM
- GI50 [18]: 0.924 µM
- TGI [18]: 2.38 µM
- CC50 [18]: 13.4 µM
- GI50 [19]: 0.681 µM
- TGI [19]: 1.84 µM
- CC50 [19]: 9.6 µM
- GI50 [20]: 0.72 µM
- TGI [20]: 2.31 µM
- CC50 [20]: 27.4 µM
- IC50 [21]: 0.1 µM
- growth at 0.003 µM [22]: 93%
- growth at 0.003 µM [23]: 98%
- growth at 0.03 µM [24]: 97%

Structure (SMILES): Cc1nc2cc(O)c(O)cc2cc1Oc1ccc(NC(=O)Nc2ccc(Cl)c(Cl)c2)cc1
- GI50 [1]: 9.02 µM
- TGI [1]: 22.4 µM
- CC50 [1]: > 32.5 µM
- GI50 [3]: 10.3 µM
- TGI [3]: > 32.5 µM
- CC50 [3]: > 32.5 µM
- GI50 [4]: 6.7 µM
- TGI [4]: 14.6 µM
- CC50 [4]: 32 µM
- GI50 [5]: 11.9 µM
- TGI [5]: > 32.5 µM
- CC50 [5]: > 32.5 µM
- GI50 [6]: 9.64 µM
- TGI [6]: 32 µM
- CC50 [6]: > 32.5 µM
- GI50 [7]: 4.9 µM
- LC50 [7]: > 32.5 µM
- TGI [7]: > 32.5 µM
- GI50 [8]: 11.4 µM
- TGI [8]: > 32.5 µM
- CC50 [8]: > 32.5 µM
- GI50 [9]: 8.86 µM
- TGI [9]: 22.7 µM
- CC50 [9]: > 32.5 µM
- GI50 [10]: 10.1 µM
- TGI [10]: > 32.5 µM
- CC50 [10]: > 32.5 µM
- GI50 [12]: 5.97 µM
- TGI [12]: 13.8 µM
- CC50 [12]: 32 µM
- GI50 [13]: 7.27 µM
- TGI [13]: 21.3 µM
- CC50 [13]: > 32.5 µM
- GI50 [14]: 9.73 µM
- TGI [14]: > 32.5 µM
- CC50 [14]: > 32.5 µM
- GI50 [15]: 7.67 µM
- TGI [15]: 18.6 µM
- CC50 [15]: > 32.5 µM
- GI50 [16]: 4.96 µM
- TGI [16]: 30 µM
- CC50 [16]: > 32.5 µM
- GI50 [17]: 14.2 µM
- TGI [17]: > 32.5 µM
- CC50 [17]: > 32.5 µM
- GI50 [18]: 6.97 µM
- TGI [18]: 14.9 µM
- CC50 [18]: 31.9 µM
- GI50 [19]: 2.49 µM
- TGI [19]: > 32.5 µM
- CC50 [19]: > 32.5 µM
- GI50 [20]: 12.8 µM
- TGI [20]: > 32.5 µM
- CC50 [20]: > 32.5 µM
- growth at 0.003 µM [22]: 97%
- growth at 0.003 µM [23]: 91%
- growth at 0.03 µM [24]: 106%
